Values of other authors in US20230323509A1, “Weak Acid Lixiviants for Recovery of Alkaline Earth Metals” (LIXIVIA, INC., priority 2020, published 2023).
Read-outs that look alike come from different tables or passages of the source.

[1] = acid listed without dissociation step index

pKa [1] | pKa (dissociation step (2)) | SMILES | pKa (dissociation step (1))
2.62 |  | CC#CC(=O)O [2-butynoic acid] | 
2.5 |  | CCC(=O)C(=O)O [2-oxobutanoic acid] | 
 | 5.64 | CC(CC(=O)O)C(=O)O (stereo not shown) [methylsuccinic acid] | 4.13
 | 4.37 | O=C(O)CC(=O)C(=O)O [oxaloacetic acid] | 2.55
4.83 |  | CCCCC(=O)O [pentanoic acid] | 

Continued, compound first:

SMILES | pKa [1] | pKa (dissociation step (2)) | pKa (dissociation step (1))
CC(O)CC(=O)O (stereo not shown) [3-hydoxybutanoic acid] | 4.7 |  | 
CCOCC(=O)O [ethoxyacetic acid] | 3.65 |  | 
O=C(O)CCCC(=O)O [glutaric acid] |  | 5.42 | 4.32
CC(C(=O)O)C(=O)O [methylmalonic acid] |  |  | 3.07
O=c1[nH]c(=O)c2[nH]c(=O)[nH]c2[nH]1 [uric acid] | 3.89 |  | 
